IC50 and oral bioavailability data for 1 compound are collected here from patent publication US12668845B2, “Methods for predicting drug responsiveness in cancer patients” (Allarity Therapeutics Europe ApS, priority 2018, dated 2026).

As usually defined, the IC50 is the point on the concentration scale where inhibition reaches its midpoint.

The test system of one data set is KLE. Put plainly: Growth inhibition of cell lines treated with 2X-121. It counts as cell-based. The settings on record: Homo sapiens; cell line KLE, origin Endometrial; read-out: Measured growth inhibition IC50.
The next data set concerns C3A. Described as above. It counts as cell-based. Conditions: Homo sapiens; cell line C3A, origin HCC; read-out: Measured growth inhibition IC50. How it is done:
(§1) The NCI60 panel of cell lines can be used to determine sensitivity to 2X-121, but it is also possible to use other cell line panels.
(§2) Baseline DNA chip measurements of 61 of the cancer cell lines in Table 1 (excluding M14 HEC-1 ECC-1 SNG-II HEC-88nu SR IM-9 Namalwa MC/CAR U266 JVM-13 NCEB-1 ARH-77) were performed using Affymetrix HG-U133Plus2 arrays and logit normalized. For each array, the logit transformation was performed followed by a Z-transformation to mean zero and SD 1, and correlated to growth inhibition (−log(GI50)). The expression level of each of the genes of Tables 2 and 3 in each cell line was correlated to the growth of those cell lines (log(GI50)) in the presence of 2X-121. The Pearson correlation coefficient was then determined to identify genes positively and negatively correlated to sensitivity to 2X-121. Tables 2 and 3 show the top positively correlated genes (the biomarkers of sensitivity) and negatively correlated genes (the biomarkers of resistance). In particular, genes with a Pearson correlation greater than 0.25 or below −0.25 can be classified as biomarkers of sensitivity or resistance, respectively.

The test system of a further data set is HT-1080. Described as above. It counts as cell-based. Conditions: Homo sapiens; cell line HT-1080, origin Fibrosarcoma; read-out: Measured growth inhibition IC50. How it is done:
as §1, §2

In the next data set the test system is HT. Described as above. Conditions: Homo sapiens; cell line HT, origin DLBCL (GC); read-out: Measured growth inhibition IC50. It counts as cell-based. How it is done: as §1, §2
For data set [1] the following is noted: cited from earlier work.
Another data set has as its system NCI-H929. The data set is described as follows: Growth inhibition of cell lines treated with 2X-121. It counts as cell-based. Conditions: Homo sapiens; cell line NCI-H929, origin Myeloma; read-out: Measured growth inhibition IC50.
The next data set relates to HEC-6. The description is as above. It counts as cell-based. The settings on record: cell line HEC-6, origin Endometrial; read-out: Measured growth inhibition IC50.
A further data set concerns HCC70. The description is as above. It counts as cell-based. Conditions: Homo sapiens; cell line HCC70, origin Breast; read-out: Measured growth inhibition IC50.
The next data set deals with NCI-H209. Described as above. It counts as cell-based. Conditions: Homo sapiens; cell line NCI-H209, origin SCLC; read-out: Measured growth inhibition IC50.
Another data set concerns MDA-MB-157. Described as above. It counts as cell-based. The settings on record: Homo sapiens; cell line MDA-MB-157, origin Breast; read-out: Measured growth inhibition IC50.
A further data set concerns HEC-151. The data set is described as above. The settings on record: cell line HEC-151, origin Endometrial; read-out: Measured growth inhibition IC50. It counts as cell-based.
A further data set deals with ARH-77. Described as above. It counts as cell-based. Conditions: Homo sapiens; cell line ARH-77, origin Myeloma; read-out: Measured growth inhibition IC50.
A further data set deals with A549. Described as above. It counts as cell-based. Conditions: Homo sapiens; cell line A549, origin NSCLC; read-out: Measured growth inhibition IC50.
Another data set relates to Jeko-1. The data set is described as above. It counts as cell-based. The settings on record: Homo sapiens; cell line Jeko-1, origin MCL; read-out: Measured growth inhibition IC50.

With `O=c1[nH]nc2c3c(cccc13)N=C(CN1Cc3ccccc3C1)N2` [2X-121, 8-(isoindolin-2-ylmethyl)-2,9-dihydro-3H-pyridazino[3,4,5-de]quinazolin-3-one], the IC50 in the data set with KLE is 2.59 µM; in the data set on C3A, 2.54 µM; in the data set on HT-1080, 0.83 µM; with HT, 0.66 µM; with NCI-H929 it was 5.2 µM; in the data set on HEC-6 it was 1.88 µM. For the same compound, the IC50 in the data set with HCC70 came out at 9.3 µM; in the data set with NCI-H209 it was 0.62 µM; in the data set with MDA-MB-157, 6.8 µM; with HEC-151, 1.44 µM; in the data set with ARH-77 it was 3.2 µM; in the data set on A549, 2.2 µM. In the data set on Jeko-1, the IC50 was determined as 1.9 µM. The oral bioavailability entry in data set [1] is listed as “orally bioavailable”.
